# Experimental data: PubChem BioAssay (NCI)
# Values joined by “and” are separate entries in the source; they are usually repeats but may differ in a detail not shown here. Equal entries are not always repeated.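 Exposure lasted 48 hours, with cells grown in 96-well plates and compounds tested at five concentrations. Here, GI50 denotes the concentration required for 50% inhibition of growth. At the TGI there is no net growth.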
# Columns and labels:
# Assay in all cases: NCI-60 cell line screen, 48 h
# [1] = tested on: A498 renal
# [2] = tested on: ACHN renal
# [3] = tested on: HCT-15 colon
# [4] = tested on: MALME-3M melanoma
# [5] = tested on: NCI-H226 lung
# [6] = tested on: NCI-H522 lung
# [7] = tested on: OVCAR-3 ovarian
# [8] = tested on: RPMI-8226 leukemia
# [9] = tested on: SF-539 CNS
# [10] = tested on: UO-31 renal
Compound,GI50 [1],TGI [1],GI50 [2],TGI [2],GI50 [3],TGI [3],GI50 [4],TGI [4],GI50 [5],TGI [5],GI50 [6],TGI [6],GI50 [7],TGI [7],GI50 [8],TGI [8],GI50 [9],TGI [9],GI50 [10],TGI [10]
COc1ccc2c(c1)CC[C@@H]1[C@@H]2CC[C@]2(C)[C@@H](NC(=O)/C=C/c3ccc(O)c(O)c3)CC[C@@H]12,14.3 µM,31.1 µM,3.89 µM,14.8 µM,3.2 µM,15.4 µM,11.2 µM,25.9 µM,2.34 µM,6.45 µM,1.68 µM,5.73 µM,10.6 µM,22.7 µM,1.08 µM,9.79 µM,4.1 µM,15.6 µM,1.26 µM,15 µM
Cc1ccc(-c2c3c(nn2-c2ccc(S(N)(=O)=O)cc2)-c2ccccc2C3)cc1,6.07 µM,21 µM,19.8 µM,35.8 µM,20.2 µM,42.4 µM,11.6 µM,26.5 µM,16.5 µM,44 µM,11.5 µM,27.6 µM,15.6 µM,30 µM,18.4 µM,60.2 µM,18.3 µM,33.3 µM,6.52 µM,21.8 µM
CC(=O)NC1C(OCc2ccccc2)OC(CO)C(O)C1OC(C)C(=O)N[C@@H](C)C(=O)N[C@H](CCC(=O)OCCNc1c2ccccc2nc2cccc([N+](=O)[O-])c12)C(N)=O (stereo not given in full),,0.0199 µM,,0.0071 µM,,0.00156 µM,,0.00356 µM,,0.0217 µM,,0.00669 µM,,0.00427 µM,,> 0.1 µM,,0.0161 µM,,0.0107 µM
CCCCC(C)C(OC(=O)CC(CC(=O)O)C(=O)O)C(CC(C)CC(O)CCCCC(O)CC(O)C(C)N)OC(=O)CC(CC(=O)O)C(=O)O (stereo not given),,> 100 µM,,> 100 µM,,> 100 µM,,> 100 µM,,> 100 µM,,> 100 µM,,> 100 µM,,> 100 µM,,> 100 µM,,> 100 µM
ON(Cc1ccccc1)C(=S)c1ccccc1,,> 100 µM,,62.1 µM,,> 100 µM,,> 100 µM,,93 µM,,28 µM,,> 67 µM,,> 100 µM,,44.4 µM,,37.9 µM
COc1ccc(C(c2ccc(OCCN(C)C)cc2)c2cc3ccccc3c3ccccc23)cc1 (stereo not given),0.536 µM,20.9 µM,1.7 µM,3.13 µM,1.28 µM,2.69 µM,1.55 µM,3.12 µM,3.43 µM,15.4 µM,1.55 µM,2.98 µM,1.66 µM,3.07 µM,1.93 µM,4.25 µM,1.7 µM,3.13 µM,1.49 µM,2.9 µM
CCCCCCNC(=O)Oc1ccc(/C(=C(/C)Cc2ccc(OC)cc2)c2ccc(OCCCN(C)C)cc2)cc1,14.1 µM,27.3 µM,16.4 µM,30.4 µM,8.71 µM,21.9 µM,15.3 µM,30.5 µM,19.4 µM,36 µM,16.2 µM,31.3 µM,15.2 µM,29.3 µM,15.9 µM,35 µM,16.2 µM,30.3 µM,10.9 µM,23.2 µM
Nc1c(O)cc(N=C2C(=O)C=CC=C2C(=O)O)c(O)c1C(=O)O,,> 100 µM,,> 100 µM,,> 100 µM,,> 57.4 µM,,> 100 µM,,> 100 µM,,> 100 µM,,> 100 µM,,> 100 µM,,> 100 µM
CN(Cc1cccc(F)c1)c1ccc(CO)c(Cl)c1,0.057 µM,0.189 µM,37.3 µM,> 100 µM,17.7 µM,> 83.2 µM,27.5 µM,> 88.9 µM,0.123 µM,0.275 µM,24.1 µM,75.5 µM,3.08 µM,15 µM,13.3 µM,> 68.3 µM,33.2 µM,> 100 µM,10.3 µM,75.5 µM
O=C(CC1(O)C(=O)Nc2ccc(Br)cc21)c1ccc(Cl)cc1Cl (stereo not given),,> 100 µM,,> 100 µM,,> 100 µM,,> 100 µM,,> 100 µM,,70.5 µM,,> 100 µM,,50.7 µM,,> 100 µM,,> 100 µM
CCN(CC)c1ccc(N=Nc2ccc([N+](=O)[O-])cc2OC(=O)/C=C/c2ccccc2)c(OC(=O)/C=C/c2ccccc2)c1,,> 58.4 µM,,> 100 µM,,> 100 µM,,> 100 µM,,> 100 µM,,> 100 µM,,> 100 µM,,> 100 µM,,> 27.9 µM,,> 100 µM
O=[N+]([O-])c1ccc(Oc2nc(Nc3ccc(O[C@H]4CO[C@H]5[C@@H]4OC[C@@H]5O)c(Cl)c3)ncc2F)c(Cl)c1,0.669 µM,2.38 µM,0.79 µM,4.55 µM,2.37 µM,10.7 µM,1.07 µM,3.17 µM,0.73 µM,2.5 µM,1.17 µM,5.6 µM,1.4 µM,5.83 µM,0.61 µM,2.56 µM,1.55 µM,3.86 µM,1.6 µM,4.81 µM
CCOc1ccc2c(c1)[n+]([O-])c(-c1ccc(Br)cc1)c(N)[n+]2[O-],,> 100 µM,,> 100 µM,,> 100 µM,,> 100 µM,,> 100 µM,,33.7 µM,,> 100 µM,,> 100 µM,,> 100 µM,,> 100 µM
CC1(C)O[C@@H](CCl)C[C@H](C#N)O1,,> 100 µM,,> 100 µM,,> 100 µM,,> 100 µM,,> 100 µM,,> 100 µM,,> 100 µM,,> 100 µM,,> 100 µM,,> 100 µM
O=[N+]([O-])c1ccc(C2CC(c3ccccc3Cl)=Nc3ccccc3S2=O)cc1 (stereo not given),,6.03 µM,,4.26 µM,,5.3 µM,,32 µM,,17.6 µM,,3.28 µM,,8.12 µM,,4.19 µM,,15.9 µM,,4.74 µM
CCN1C(=O)CCCc2c1ccc(Nc1ncc(Cl)c(NC3[C@@H](C(N)=O)[C@@H]4C=C[C@H]3C4)n1)c2OC (stereo not given in full),0.529 µM,2.65 µM,2.07 µM,> 30.2 µM,0.563 µM,> 20.5 µM,0.998 µM,3.4 µM,1.56 µM,12.7 µM,1.16 µM,6.13 µM,2.14 µM,10.6 µM,0.976 µM,4.26 µM,1.23 µM,8.94 µM,0.809 µM,4.07 µM
Cn1nc(-c2ccc(Cl)cc2)nc2c(=O)n(C)c(=O)nc1-2,0.949 µM,2.24 µM,1.13 µM,3.1 µM,0.766 µM,1.53 µM,0.382 µM,1.14 µM,2.38 µM,5.83 µM,0.864 µM,1.67 µM,0.275 µM,1.2 µM,0.886 µM,2.23 µM,1.08 µM,2.29 µM,1.53 µM,6.56 µM
FC(F)(F)c1ccc(-c2cnc(-n3cc(COCCN4CCCCC4)nn3)nc2NC2CCCCCC2)cc1,3.56 µM,7.04 µM,4.53 µM,8.39 µM,4.02 µM,8.66 µM,4.24 µM,8.47 µM,3.54 µM,7.83 µM,3.93 µM,7.99 µM,3.98 µM,7.48 µM,3.85 µM,9.03 µM,3.89 µM,7.42 µM,2.63 µM,5.97 µM
C=C1C(=O)O[C@H]2[C@H]1CC/C(COC(=O)CCSCCC(=O)OC/C1=C/CC[C@@]3(C)O[C@H]3[C@H]3OC(=O)C(=C)[C@@H]3CC1)=C\CC[C@@]1(C)O[C@@H]21,1.7 µM,4.78 µM,0.658 µM,1.89 µM,1.11 µM,2.46 µM,1.12 µM,2.73 µM,3 µM,8.96 µM,0.686 µM,2.29 µM,0.451 µM,1.69 µM,0.383 µM,1.83 µM,1.2 µM,2.59 µM,1.07 µM,2.27 µM
COc1cc2c(cc1OC)C(Sc1ccc(SC)cc1)c1c(nc(N)c(C#N)c1N)O2 (stereo not given),1.61 µM,3.28 µM,1.69 µM,3.06 µM,1.44 µM,2.91 µM,1.85 µM,3.35 µM,1.64 µM,3.04 µM,1.64 µM,3.03 µM,1.62 µM,3.06 µM,2.54 µM,6.46 µM,1.55 µM,2.88 µM,1.33 µM,2.6 µM
Cc1cc2cc3ccc(N(C)C)cc3nc2cc1N,0.433 µM,2.05 µM,0.423 µM,5.75 µM,1.4 µM,17.8 µM,0.929 µM,3.42 µM,0.584 µM,3.6 µM,0.612 µM,2.4 µM,0.502 µM,2.45 µM,0.637 µM,5.55 µM,0.658 µM,2.49 µM,0.642 µM,5.01 µM
COc1cccc(/C=N/NC(=S)NC2CC3CCC2C3)c1O (stereo not given),3.18 µM,12.9 µM,2.5 µM,8.14 µM,1.07 µM,> 100 µM,5.65 µM,20 µM,2.38 µM,10.9 µM,11.5 µM,37.6 µM,3.07 µM,9.45 µM,11.1 µM,49.7 µM,10.8 µM,29.3 µM,2.3 µM,9.93 µM
Oc1ccc(-c2nc3ccc4[nH]ncc4c3c3c2CCCC3)c(F)c1,2.25 µM,6.51 µM,2.08 µM,12.5 µM,2.26 µM,11.3 µM,3.36 µM,12.1 µM,5.26 µM,69.9 µM,1.25 µM,4.72 µM,2.89 µM,7.85 µM,1.8 µM,10.7 µM,2.41 µM,10.2 µM,2.6 µM,8.35 µM
COc1cc(-c2cc(-c3ccc(Nc4ccnc5cc(Cl)ccc45)cc3)nc(N3CCOCC3)n2)cc(OC)c1OC,28.2 µM,74.4 µM,2.34 µM,5.02 µM,1.52 µM,3.58 µM,1.86 µM,3.97 µM,11.4 µM,38.2 µM,2.03 µM,5.03 µM,1.89 µM,3.67 µM,1.57 µM,5.02 µM,1.94 µM,3.67 µM,1.57 µM,3.11 µM
O=C1C2=C(c3ccccc31)C(c1ccccc1)N1C(=O)CSC1=N2 (stereo not given),,> 100 µM,,> 100 µM,,98.1 µM,,> 100 µM,,> 100 µM,,> 79.8 µM,,> 100 µM,,> 100 µM,,97.1 µM,,> 100 µM
Cc1ccc(NC(=O)C2C(=O)N(c3ccc(C)c(C)c3)C(=O)/C2=N\NC(N)=O)cc1C (stereo not given),,> 100 µM,,> 100 µM,,> 100 µM,,> 100 µM,,> 100 µM,,> 100 µM,,> 100 µM,,> 100 µM,,> 100 µM,,> 100 µM
CC1=CC(=O)C(C(C)C)=CC1=Nc1cc(Br)c(O)c(Br)c1,3.81 µM,19.6 µM,11.6 µM,30.1 µM,3.85 µM,21.1 µM,14.1 µM,33.4 µM,3.87 µM,19.3 µM,4.42 µM,18 µM,2.68 µM,7.47 µM,4.51 µM,27.5 µM,2.29 µM,5.96 µM,8.22 µM,33.1 µM
CC1=C(/C=C/C(C)=C/C=C/C(C)=C/C=N/NC(=S)NC(=S)N/N=C/C=C(C)/C=C/C=C(C)/C=C/C2=C(C)CCCC2(C)C)C(C)(C)CCC1,6.57 µM and 1.36 µM,13 µM and 5.83 µM,5.14 µM and 2.3 µM,11.4 µM and 7.9 µM,2.68 µM and 1.89 µM,9.82 µM and 8.2 µM,1.19 µM and 0.882 µM,5.91 µM and 2.63 µM,1.06 µM and 1.05 µM,2.68 µM and 2.47 µM,0.286 µM and 0.181 µM,1.07 µM and 0.795 µM,1.47 µM and 0.802 µM,4.92 µM and 1.53 µM,3.31 µM and 1.29 µM,23.1 µM and 4.55 µM,1.13 µM and 0.994 µM,2.85 µM and 2.03 µM,1.84 µM and 1.52 µM,8.94 µM and 7.32 µM
